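Results reflect a 48-hour exposure of cells in 96-well plates to compound at five concentrations. GI50 = concentration required for 50% inhibition of growth.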 Active and inactive are the calls of the source. No stated cut-off is given here; in the data, active = GI50 up to about 1.1 µM and inactive = higher.

Among the test systems are HOP-18; KM-20L2; SK-MEL-28; HCC 2998; XF498; DMS-114; HL-60; U-251; DLD-1; PC-3; DU-145; DMS-273; OVCAR-4; LOX IMVI; A549; K562; SNB-19; SNB-78; NCI/ADR-RES.
Experiment in all cases: inhibition of tumour cell growth, NCI panel, 48 h

In the case of `ON(Cc1ccccc1)C(=S)c1ccccc1`, the GI50 in the assay on HOP-18 is 15900 nM (inactive); with KM-20L2 it was 4410 nM (inactive); in the assay on SK-MEL-28, 11400 nM (inactive); with HCC 2998, 7240 nM (inactive); in the assay on XF498, > 41700 nM (inactive); with DMS-114, 2220 nM (inactive). The GI50 with HL-60 is 927 nM (active); in the assay with U-251 it was 3640 nM (inactive); with DLD-1, 5180 nM (inactive); in the assay on PC-3 it was 3030 nM (inactive); with DU-145 it was 7380 nM (inactive); in the assay on DMS-273 it was 2620 nM (inactive). Also, the GI50 was 2610 nM (inactive) with OVCAR-4; 2240 nM (inactive) in the assay with LOX IMVI; 4350 nM (inactive) in the assay on A549; 3270 nM (inactive) in the assay with K562; 17700 nM (inactive) with SNB-19; 31800 nM (inactive) in the assay on SNB-78.
For the compound `NCC(Cl)C(O)c1c[nH]c(N)n1` (stereo not given), the GI50 in the assay on HOP-18 was 275 nM (active); in the assay on KM-20L2, 596 nM (active); in the assay on SK-MEL-28 it was 3610 nM (inactive); with HCC 2998 it was 625 nM (active); in the assay on XF498, 2450 nM (inactive); in the assay on DMS-114, 1540 nM (inactive). In addition, the GI50 with HL-60 was 3460 nM (inactive); in the assay with U-251, 1030 nM (active); with DLD-1, 1840 nM (inactive); in the assay with NCI/ADR-RES it was 596 nM (active); with DMS-273, 2050 nM (inactive); with OVCAR-4, 668 nM (active). Besides, the GI50 was 1240 nM (inactive) in the assay with LOX IMVI; 136 nM (active) in the assay with A549; 2380 nM (inactive) in the assay on K562; 1160 nM (inactive) in the assay on SNB-19; 9790 nM (inactive) with SNB-78.

For the origin of these results see ChEMBL document CHEMBL1201862, “PubChem BioAssay data set” (2004).
